Measured values from PMC8776063, “Aurora Kinase A Is Involved in Controlling the Localization of Aquaporin-2 in Renal Principal Cells” (International Journal of Molecular Sciences, 2022).
Like-named read-outs stand apart in the source and are kept apart here.

How the values were obtained:
[1] = target: T1, GRK5 (Homo sapiens, UniProt P34947); experiment: Thermal shift assay; format: binding; settings: read-out: ΔTm GRK5
T1 construct: purchased in-house thermal shift (DSF) kinase panel (SGC Frankfurt); Promega NanoBRET for AURKA/B/C

[2] = target: T2, AURKB (Homo sapiens, UniProt Q96GD4); experiment: Thermal shift assay; format: binding; set-up: full-length wild-type AURKA, AURKB, and AURKC were obtained as plasmids cloned in frame with a C-terminal NanoLuc-fusion; settings: read-out: ΔTm AURKB
[3] = target: T3, STK26 (Homo sapiens, UniProt Q9P289); experiment: Thermal shift assay; format: binding; settings: read-out: ΔTm STK26
T3 construct: purchased in-house thermal shift (DSF) kinase panel (SGC Frankfurt); Promega NanoBRET for AURKA/B/C

[4] = target: T4, CSNK2A1 (Homo sapiens, UniProt P68400); experiment: Thermal shift assay; format: binding; settings: read-out: ΔTm CSNK2A1
T4 construct: purchased in-house thermal shift (DSF) kinase panel (SGC Frankfurt); Promega NanoBRET for AURKA/B/C

[5] = target: T5, CLK1 (Homo sapiens, UniProt P49759); experiment: Thermal shift assay; format: binding; settings: read-out: ΔTm CLK1
T5 construct: purchased in-house thermal shift (DSF) kinase panel (SGC Frankfurt); Promega NanoBRET for AURKA/B/C

[6] = target: T6, PAK1 (Homo sapiens, UniProt Q13153); experiment: Thermal shift assay; format: binding; settings: read-out: ΔTm PAK1
T6 construct: purchased in-house thermal shift (DSF) kinase panel (SGC Frankfurt); Promega NanoBRET for AURKA/B/C

[7] = target: T7, STK3 (Homo sapiens, UniProt Q13188); experiment: Thermal shift assay; format: binding; settings: read-out: ΔTm STK3
T7 construct: purchased in-house thermal shift (DSF) kinase panel (SGC Frankfurt); Promega NanoBRET for AURKA/B/C
T7 sequence (Q13188 16-313): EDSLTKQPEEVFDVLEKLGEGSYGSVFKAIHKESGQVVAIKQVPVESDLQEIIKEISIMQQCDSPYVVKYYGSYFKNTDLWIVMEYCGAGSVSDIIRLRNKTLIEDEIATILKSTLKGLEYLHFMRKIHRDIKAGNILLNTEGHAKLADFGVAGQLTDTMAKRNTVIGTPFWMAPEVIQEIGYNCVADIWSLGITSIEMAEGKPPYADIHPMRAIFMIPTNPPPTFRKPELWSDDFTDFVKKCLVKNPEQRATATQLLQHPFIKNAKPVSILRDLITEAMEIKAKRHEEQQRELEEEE

[8] = target: T8, STK17A (Homo sapiens, UniProt Q9UEE5); experiment: Thermal shift assay; format: binding; settings: read-out: ΔTm STK17A
T8 construct: purchased in-house thermal shift (DSF) kinase panel (SGC Frankfurt); Promega NanoBRET for AURKA/B/C
T8 sequence (Q9UEE5 61-321): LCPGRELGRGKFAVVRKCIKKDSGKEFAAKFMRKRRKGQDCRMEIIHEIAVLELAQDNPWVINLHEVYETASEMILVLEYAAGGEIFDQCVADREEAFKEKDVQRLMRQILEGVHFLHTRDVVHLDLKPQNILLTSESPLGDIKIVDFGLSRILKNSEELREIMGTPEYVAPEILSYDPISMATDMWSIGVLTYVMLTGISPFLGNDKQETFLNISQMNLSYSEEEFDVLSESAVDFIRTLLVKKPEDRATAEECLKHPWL

[9] = target: T9, CAMKK2 (Homo sapiens, UniProt Q96RR4); experiment: Thermal shift assay; format: binding; settings: read-out: ΔTm CAMKK2
T9 construct: purchased in-house thermal shift (DSF) kinase panel (SGC Frankfurt); Promega NanoBRET for AURKA/B/C

[10] = target: T10, STK39 (Homo sapiens, UniProt Q9UEW8); experiment: Thermal shift assay; format: binding; settings: read-out: ΔTm STK39
T10 construct: purchased in-house thermal shift (DSF) kinase panel (SGC Frankfurt); Promega NanoBRET for AURKA/B/C

[11] = target: T11, BRAF (Homo sapiens, UniProt P15056); experiment: Thermal shift assay; format: binding; settings: read-out: ΔTm BRAF
T11 construct: purchased in-house thermal shift (DSF) kinase panel (SGC Frankfurt); Promega NanoBRET for AURKA/B/C

[12] = target: T12, MERTK (Homo sapiens, UniProt Q12866); experiment: Thermal shift assay; format: binding; settings: read-out: ΔTm MERTK
T12 construct: purchased in-house thermal shift (DSF) kinase panel (SGC Frankfurt); Promega NanoBRET for AURKA/B/C
T12 sequence (Q12866 570-864): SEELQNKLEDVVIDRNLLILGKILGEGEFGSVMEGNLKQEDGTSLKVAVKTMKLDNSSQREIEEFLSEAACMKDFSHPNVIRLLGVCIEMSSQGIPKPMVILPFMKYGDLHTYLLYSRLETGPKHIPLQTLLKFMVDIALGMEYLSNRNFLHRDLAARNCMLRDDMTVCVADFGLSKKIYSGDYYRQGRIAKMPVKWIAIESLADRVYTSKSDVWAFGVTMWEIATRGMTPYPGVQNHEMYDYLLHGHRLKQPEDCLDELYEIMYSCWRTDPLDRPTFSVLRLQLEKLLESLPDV

[13] = system: MCD4 cells; experiment: MTS assay (cell viability); format: cell-based, mouse; settings: 30 µM, 10 µM or 1 µM, 1 h; compared to untreated cells
[14] = target: T13, FGFR2 (Homo sapiens, UniProt P21802); experiment: Thermal shift assay; format: binding; settings: read-out: ΔTm FGFR2
T13 construct: purchased in-house thermal shift (DSF) kinase panel (SGC Frankfurt); Promega NanoBRET for AURKA/B/C

[15] = target: T2, AURKB; experiment: NanoBRET assay in HEK293T cells; format: cell-based; set-up: full-length wild-type AURKA, AURKB, and AURKC were obtained as plasmids cloned in frame with a C-terminal NanoLuc-fusion; host or cells: HEK293T
[16] = target: T14, FES (Homo sapiens, UniProt P07332); experiment: Thermal shift assay; format: binding; settings: read-out: ΔTm FES
T14 construct: purchased in-house thermal shift (DSF) kinase panel (SGC Frankfurt); Promega NanoBRET for AURKA/B/C

[17] = target: T15, MAPK1 (Homo sapiens, UniProt P28482); experiment: Thermal shift assay; format: binding; settings: compound 10 µM; n = 3
T15 construct: purchased in-house thermal shift (DSF) kinase panel (SGC Frankfurt); Promega NanoBRET for AURKA/B/C

[18] = target: T16, CSNK1D (Homo sapiens, UniProt P48730); experiment: Thermal shift assay; format: binding; settings: read-out: ΔTm CSNK1D
T16 construct: purchased in-house thermal shift (DSF) kinase panel (SGC Frankfurt); Promega NanoBRET for AURKA/B/C
T16 sequence (P48730 1-294): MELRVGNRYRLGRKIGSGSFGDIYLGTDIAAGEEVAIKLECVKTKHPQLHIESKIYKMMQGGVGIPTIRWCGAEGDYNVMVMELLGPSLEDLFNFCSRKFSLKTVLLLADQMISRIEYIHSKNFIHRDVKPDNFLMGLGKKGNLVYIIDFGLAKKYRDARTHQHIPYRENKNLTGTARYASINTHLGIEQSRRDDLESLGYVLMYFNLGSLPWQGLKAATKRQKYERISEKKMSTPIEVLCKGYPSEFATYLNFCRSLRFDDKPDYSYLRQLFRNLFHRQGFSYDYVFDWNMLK

[19] = NanoBRET, HEK293T cells overexpressing the kinase, Table 2, read-out: AURKB IC50
[20] = NanoBRET, n = 2, mean, Figure 6B, read-out: affinity to intracellular AURKB

T14 sequence (P07332 whole entry): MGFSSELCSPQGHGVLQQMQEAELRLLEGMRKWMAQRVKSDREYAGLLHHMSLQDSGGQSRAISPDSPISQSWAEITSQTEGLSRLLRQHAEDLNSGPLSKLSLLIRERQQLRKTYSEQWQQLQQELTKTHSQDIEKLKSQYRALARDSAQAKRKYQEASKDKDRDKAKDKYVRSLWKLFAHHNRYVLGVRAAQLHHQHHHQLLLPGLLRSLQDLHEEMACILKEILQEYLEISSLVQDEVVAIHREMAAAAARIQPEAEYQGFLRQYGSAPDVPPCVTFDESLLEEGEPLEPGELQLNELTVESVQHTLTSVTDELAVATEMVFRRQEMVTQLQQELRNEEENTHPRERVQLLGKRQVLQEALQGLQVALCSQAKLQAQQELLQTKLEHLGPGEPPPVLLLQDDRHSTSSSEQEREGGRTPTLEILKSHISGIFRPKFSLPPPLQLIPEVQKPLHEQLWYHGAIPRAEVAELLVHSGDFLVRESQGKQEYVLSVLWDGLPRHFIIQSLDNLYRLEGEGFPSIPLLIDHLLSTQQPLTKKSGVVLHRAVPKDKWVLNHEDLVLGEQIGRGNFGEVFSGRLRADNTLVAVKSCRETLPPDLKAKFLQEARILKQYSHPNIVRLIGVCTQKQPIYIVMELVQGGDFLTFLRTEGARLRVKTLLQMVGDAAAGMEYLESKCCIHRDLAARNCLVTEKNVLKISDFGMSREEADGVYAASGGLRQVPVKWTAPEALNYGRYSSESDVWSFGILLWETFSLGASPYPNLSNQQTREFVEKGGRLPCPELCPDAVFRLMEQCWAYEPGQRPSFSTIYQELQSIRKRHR
T1 sequence (P34947 186-514): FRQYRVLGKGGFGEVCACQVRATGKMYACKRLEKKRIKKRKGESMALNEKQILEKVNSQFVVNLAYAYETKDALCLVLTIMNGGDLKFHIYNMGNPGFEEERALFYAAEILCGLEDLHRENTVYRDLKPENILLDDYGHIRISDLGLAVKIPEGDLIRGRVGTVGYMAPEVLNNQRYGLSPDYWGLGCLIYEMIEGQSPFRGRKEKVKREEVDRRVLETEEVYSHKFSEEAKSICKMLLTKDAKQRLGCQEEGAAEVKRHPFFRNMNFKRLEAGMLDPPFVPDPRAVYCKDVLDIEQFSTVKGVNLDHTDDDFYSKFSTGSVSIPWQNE
T3 sequence (Q9P289 1-300): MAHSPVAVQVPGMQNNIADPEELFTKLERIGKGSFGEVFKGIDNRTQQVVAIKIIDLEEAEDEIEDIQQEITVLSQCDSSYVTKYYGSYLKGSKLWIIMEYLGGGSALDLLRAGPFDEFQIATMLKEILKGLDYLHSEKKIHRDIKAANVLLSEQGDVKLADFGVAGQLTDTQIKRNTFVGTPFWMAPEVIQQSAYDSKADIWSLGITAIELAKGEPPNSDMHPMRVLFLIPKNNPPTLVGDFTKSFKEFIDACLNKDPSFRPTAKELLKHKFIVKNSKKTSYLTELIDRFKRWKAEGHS
T11 sequence (P15056 448-723): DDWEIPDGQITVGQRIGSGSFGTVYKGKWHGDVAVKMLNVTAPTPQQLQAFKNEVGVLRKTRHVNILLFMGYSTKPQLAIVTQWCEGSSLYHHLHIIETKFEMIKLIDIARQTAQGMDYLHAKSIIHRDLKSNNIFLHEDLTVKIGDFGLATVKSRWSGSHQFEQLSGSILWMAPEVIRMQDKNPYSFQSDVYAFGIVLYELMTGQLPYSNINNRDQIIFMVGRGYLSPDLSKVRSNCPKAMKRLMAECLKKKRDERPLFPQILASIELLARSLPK
T5 sequence (P49759 148-484): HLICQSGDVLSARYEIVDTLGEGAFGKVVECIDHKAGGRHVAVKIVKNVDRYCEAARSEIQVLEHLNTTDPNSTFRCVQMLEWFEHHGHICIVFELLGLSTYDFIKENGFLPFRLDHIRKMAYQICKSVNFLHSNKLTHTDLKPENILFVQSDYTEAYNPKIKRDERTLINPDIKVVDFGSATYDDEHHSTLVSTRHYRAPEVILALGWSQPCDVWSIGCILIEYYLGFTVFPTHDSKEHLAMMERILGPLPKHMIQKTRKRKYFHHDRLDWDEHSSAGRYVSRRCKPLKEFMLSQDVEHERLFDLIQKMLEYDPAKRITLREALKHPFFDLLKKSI
T2 sequence (Q96GD4 whole entry, the tested form may be a part): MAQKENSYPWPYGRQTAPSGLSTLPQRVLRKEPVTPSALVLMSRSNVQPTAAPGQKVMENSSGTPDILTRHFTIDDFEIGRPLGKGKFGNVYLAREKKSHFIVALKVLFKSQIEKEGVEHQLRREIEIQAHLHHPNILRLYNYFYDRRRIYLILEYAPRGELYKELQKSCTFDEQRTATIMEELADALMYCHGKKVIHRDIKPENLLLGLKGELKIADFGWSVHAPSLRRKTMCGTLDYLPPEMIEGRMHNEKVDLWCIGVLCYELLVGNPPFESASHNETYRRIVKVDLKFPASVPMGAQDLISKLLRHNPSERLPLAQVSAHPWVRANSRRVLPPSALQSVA
T15 sequence (P28482 whole entry): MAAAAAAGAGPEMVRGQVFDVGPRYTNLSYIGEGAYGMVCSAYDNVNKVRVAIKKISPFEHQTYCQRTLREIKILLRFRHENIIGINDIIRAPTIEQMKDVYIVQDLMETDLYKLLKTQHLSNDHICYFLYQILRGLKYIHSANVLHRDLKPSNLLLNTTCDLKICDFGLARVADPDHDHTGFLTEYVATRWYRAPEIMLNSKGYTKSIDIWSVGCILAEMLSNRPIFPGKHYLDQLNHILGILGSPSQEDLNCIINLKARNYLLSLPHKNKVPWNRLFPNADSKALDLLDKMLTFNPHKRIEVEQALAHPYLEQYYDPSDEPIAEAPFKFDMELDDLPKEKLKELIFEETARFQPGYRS
T4 sequence (P68400 1-337): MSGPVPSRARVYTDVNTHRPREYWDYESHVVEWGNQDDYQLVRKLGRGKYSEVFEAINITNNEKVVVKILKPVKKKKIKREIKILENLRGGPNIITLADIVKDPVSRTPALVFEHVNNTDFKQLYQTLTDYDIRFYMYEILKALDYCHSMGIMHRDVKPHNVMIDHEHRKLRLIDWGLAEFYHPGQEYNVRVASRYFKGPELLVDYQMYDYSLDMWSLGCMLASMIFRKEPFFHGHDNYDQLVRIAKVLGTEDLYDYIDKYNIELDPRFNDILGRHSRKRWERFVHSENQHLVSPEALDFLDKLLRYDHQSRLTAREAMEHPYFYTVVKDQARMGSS
T9 sequence (Q96RR4 161-449): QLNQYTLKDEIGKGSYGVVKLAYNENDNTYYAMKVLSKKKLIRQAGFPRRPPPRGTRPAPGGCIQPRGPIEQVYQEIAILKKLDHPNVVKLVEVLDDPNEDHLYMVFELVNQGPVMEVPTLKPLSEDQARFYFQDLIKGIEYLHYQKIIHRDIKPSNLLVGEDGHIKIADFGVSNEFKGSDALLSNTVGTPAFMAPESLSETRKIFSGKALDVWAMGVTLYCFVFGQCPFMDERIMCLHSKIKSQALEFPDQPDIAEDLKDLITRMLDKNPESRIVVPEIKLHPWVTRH
T13 sequence (P21802 458-768): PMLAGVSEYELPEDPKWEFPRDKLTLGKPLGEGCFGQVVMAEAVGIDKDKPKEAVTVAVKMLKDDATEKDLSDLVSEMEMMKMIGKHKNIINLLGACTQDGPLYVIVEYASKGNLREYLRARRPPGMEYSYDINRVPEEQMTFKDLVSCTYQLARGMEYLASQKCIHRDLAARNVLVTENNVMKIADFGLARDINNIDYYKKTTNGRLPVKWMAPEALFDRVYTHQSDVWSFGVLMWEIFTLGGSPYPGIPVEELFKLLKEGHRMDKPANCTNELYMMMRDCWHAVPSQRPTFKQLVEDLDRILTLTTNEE
T6 sequence (Q13153 249-545): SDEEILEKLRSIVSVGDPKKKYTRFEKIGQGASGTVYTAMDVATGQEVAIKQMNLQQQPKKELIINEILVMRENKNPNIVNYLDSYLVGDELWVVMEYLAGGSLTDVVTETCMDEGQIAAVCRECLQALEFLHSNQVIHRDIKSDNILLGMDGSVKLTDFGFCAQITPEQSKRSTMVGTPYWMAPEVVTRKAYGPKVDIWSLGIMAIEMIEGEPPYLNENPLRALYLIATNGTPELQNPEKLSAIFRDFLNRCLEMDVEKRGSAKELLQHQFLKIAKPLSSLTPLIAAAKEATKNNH

SMILES	viability of MCD4 cells [13]	ΔTm at 10 µM [17] [°C]	ΔTm at 10 µM ([1]; compound 10 µM, n = 3) [°C]	ΔTm at 10 µM ([2]; compound 10 µM, n = 3) [°C]	ΔTm at 10 µM ([3]; compound 10 µM, n = 3) [°C]	ΔTm at 10 µM ([4]; compound 10 µM, n = 3) [°C]	ΔTm at 10 µM ([5]; compound 10 µM, n = 3) [°C]	ΔTm at 10 µM ([6]; compound 10 µM, n = 3) [°C]	ΔTm at 10 µM ([7]; compound 10 µM, n = 3) [°C]	ΔTm at 10 µM ([8]; compound 10 µM, n = 3) [°C]	ΔTm at 10 µM ([9]; compound 10 µM, n = 3) [°C]	ΔTm at 10 µM ([10]; compound 10 µM, n = 3) [°C]	ΔTm at 10 µM ([11]; compound 10 µM, n = 3) [°C]	ΔTm at 10 µM ([12]; compound 10 µM, n = 3) [°C]	ΔTm at 10 µM ([14]; compound 10 µM, n = 3) [°C]	IC50 [15, 19] [µM]	ΔTm at 10 µM ([16]; compound 10 µM, n = 3) [°C]	ΔTm at 10 µM ([18]; compound 10 µM, n = 3) [°C]	IC50 [15, 20] [µM]	further results
CCN1CCN(C(=O)Cc2ccc(Nc3ncc(F)c(Nc4ccc(C(=O)Nc5ccccc5Cl)cc4)n3)cc2)CC1 [Aurora-A inhibitor I, reference compound]	did not elicit any significant effects	0.4																		ΔTm at 10 µM [1]: 0.2 °C; ΔTm at 10 µM [2]: -0.5 °C; ΔTm at 10 µM [3]: 0.6 °C; ΔTm at 10 µM [4]: 1.1 °C; ΔTm at 10 µM [5]: 1.5 °C; ΔTm at 10 µM [6]: 0.5 °C; ΔTm at 10 µM [7]: 2.6 °C; ΔTm at 10 µM [8]: 1.9 °C; ΔTm at 10 µM [9]: 2.3 °C; ΔTm at 10 µM [10]: 2.4 °C; ΔTm at 10 µM [11]: 1.1 °C; ΔTm at 10 µM [12]: 1.7 °C; ΔTm at 10 µM [14]: 2.5 °C; IC50 [15]: > 50 µM; ΔTm at 10 µM [16]: 1.4 °C; ΔTm at 10 µM [18]: 0.2 °C
CCN1CCN(C(=O)Cc2ccc(Nc3ncc(F)c(Nc4ccc(C(=O)O)cc4)n3)cc2)CC1 [ERJ2-12]	does not affect	-0.1	0.2	-2.5	-0.2	1.3	0.5	0.2	0.1	0.4	1.8	0.2	0.7	0.3	2.9	> 50	0.4	0.2		
CCN1CCN(C(=O)Cc2ccc(Nc3ncc(F)c(Nc4ccc(C(=O)Nc5ccccc5)cc4)n3)cc2)CC1 [ERJ2-11]	reduced by 10 or 30 µM	-0.1	0.2	-0.2	1.3	1.1	1.5	0.5	2	1.8	3.1	2.6	1.8	1.7	2.9		1.7	0.2	43	
O=C(Cc1ccc(Nc2ncc(F)c(Nc3ccc(C(=O)Nc4ccccc4Cl)cc3)n2)cc1)NCCN1CCOCC1 [ERJ2-04]	reduced by 10 or 30 µM	0.3	0.2	-0.8	0.4	1.3	0.4	0.6	1.3	1.4	1.3	2.1	0.8	0.9	1.5	> 50	0.5	0		
NC(=O)Cc1ccc(Nc2ncc(F)c(Nc3ccc(C(=O)Nc4ccccc4Cl)cc3)n2)cc1 [ERJ2-06]	did not elicit any significant effects	0.1	0	0.5	1.7	1.6	1.7	0.7	3.1	2.2	2.2	2.4	0.5	1.3	2.4		1.4	0	13.6	
